Laboratory results from patent US12065468B2, “Heme-binding small peptide” (priority 2021, dated 2024).
pKd: −log10 of the molar value.

Tests used:
[1] = literature; read-out: KD for heme; cited from earlier work
[2] = Biolayer interferometry of heme binding; settings: compared with NCR247 (L-enantiomer)
From the text: Biotinylation of heme: Hemin was biotinylated using the method exactly as described previouslyl^16. Biotin hydrazide, DCC was purchased from Sigma. COSMOSIL™ 5C18-AR-II Packed Column, 4.6 mm I.D.×150 mm from Nacalai USA (San Diego, CA) was used to separate the products. LC-MS was used to verify the correct molecular weight (969.4 Da) of biotinylated heme (in which only one of the two propionate groups of protoheme was conjugated with biotin hydrazide) as described above.
Biolayer interferometry: Biolayer interferometry was carried out using a ForteBio Octet RED96™ biolayer interferometer, following the manufacturer's instructions for a standard kinetic assay. Streptavidin-coated biosensor tips were incubated in 200 μl assay buffer (Water [pH 7.4]), each for 60s. Then biotinylated heme (or NCR247 in the case of Fe(III) PPIX dimethyl ester chloride) was loaded onto each biosensor tip at the defined concentration until the binding signal reached a value of >1.4. Biosensor tip loading was followed by incubation in assay buffer for 60s. Association between the ligand-heme and the analyte-various variants of NCR247 (Increasing concentrations in assay buffer) was observed over a time frame of ˜116 s, in assay buffer. To stop binding kinetics for dissociation, the biosensor tips were placed back into assay buffer not containing any analyte, for 120 s. Curves were fit with Global fit analysis and Data analysis and KD calculation was performed using Fortebio™ data analyses 8.2 software as described previously^89.

[3] = UV-Vis spectroscopy / colour change on heme addition; type: binding; settings: heme added to peptide, ferric heme
Procedure: Heme preparation: Hemin solutions were always prepared in 0.1 M NaOH and used within 30 min of preparation. 1:1000 and 1:500 dilution of the stock solution was made and stock concentration was measured by pyridine hemochrome assay as described previously^85 by measuring the absorption at 557 nm using the extinction coefficient of pyridine hemochromogen (34.7 mM^−1 cm^−1).
UV-VIS spectroscopy: All absorption spectra were collected in a Tecan Spark™ 10 M microplate reader using black polystyrene 96-well plates. Absorbance from 300 nm to 700 nm was recorded with a 5 nm interval after an initial shaking at 100 rpm for 15 secs. Heme binding to synthesized peptide: Water (pH 7.4) was used in all reactions and was first added to the wells. Peptides solubilized in water were added and then heme solubilized in 0.1 M NaOH was added, mixed thoroughly and measurements were taken immediately. Peptide and heme volume were kept to a maximum of 5 ul in volume. For all the absorption curves (except Extended FIG. 3a) […] was used. The same was also repeated with 0.1 M Tris buffer (pH 7.4) as a base buffer instead of water.

[4] = test system: Sinorhizobium meliloti; assay: S. meliloti cell death in 24 hours (plating); type: cell-based
[5] = test system: Sinorhizobium meliloti; assay: S. meliloti growth curve; type: cell-based; settings: increasing amounts of peptide; minimal medium
Procedure: Growth curve: All growth curve experiments were performed in a Tecan SPARK 10M microplate reader using polystyrene flat bottomed, non-treated, sterile 96 well plates. Overnight cultures grown in LBMC were washed and were subcultured (1:100 dilution) in minimal medium supplemented with respective iron concentrations. The plates were programed to continuously shake at 150 rpm and temperature maintained at 30° C. Optical density was measured at 600 nm every 60 minutes.

Aβ (1-42) peptide: human Aβ amyloid peptide derived from cleavage of the amyloid precursor protein
pKd [1]: 6.85

RNGCIVDARCPYQKCSYPLYCRRR [M. sativa (alfalfa) NCR247 ortholog, NCR247 ortholog of M. sativa with a 4-amino acid change]
heme binding affinity, in words [2]: binds heme with the same affinity

RNGCIVDPRCPYQQCRRPLYCAAA [NCR247 (RRR to AAA mutant)]
heme binding (absorption peaks 366 nm, ~450 nm; colour change) [3]: binds heme
Cell death in 24 hours ([4]; 6 uM peptide): No cell death observed
reduction in number of S. meliloti cells (bactericidal effect) ([4]; incubated 24 hours, plated in non-selective medium): causes no reduction in number of S. meliloti cells
inhibition of growth of S. meliloti (bacteriostatic effect) [5]: does not inhibit the growth of Sinorhizobium meliloti

haempexin: heme scavenger
pKd [1]: > 6.00

hemoglobin
pKd [1]: 8.00
